Results taken from PMC6271825, “Synthesis and Cytotoxic Activity Evaluation of Novel Arylpiperazine Derivatives on Human Prostate Cancer Cell Lines” (Molecules, 2014).
Structures can show the parent of a compound that is named as a salt.

melting point [°C]	SMILES
195 to 196	c1ccc(N2CCN(CCc3ccc(COc4ccc5c(c4)OCO5)cc3)CC2)cc1 (as salt: HCl) [Compound 5, 1-(2-(4-((Benzo[d][1,3]dioxol-5-yloxy)methyl)phenyl)ethyl)-4-phenylpiperazine]
177 to 178	c1ccc(CN2CCN(CCc3ccc(COc4ccc5c(c4)OCO5)cc3)CC2)cc1 (as salt: HCl) [Compound 6, 1-(2-(4-((Benzo[d][1,3]dioxol-5-yloxy)methyl)phenyl)ethyl)-4-benzylpiperazine]
185 to 186	c1ccc(N2CCN(CCc3ccc(COc4ccc5c(c4)OCO5)cc3)CC2)nc1 (as salt: HCl) [Compound 7, 1-(2-(4-((Benzo[d][1,3]dioxol-5-yloxy)methyl)phenyl)ethyl)-4-(pyridin-2-yl)piperazine]
181 to 182	c1cnc(N2CCN(CCc3ccc(COc4ccc5c(c4)OCO5)cc3)CC2)nc1 (as salt: HCl) [Compound 8, 2-(4-(2-(4-((Benzo[d][1,3]dioxol-5-yloxy)methyl)phenyl)ethyl)piperazin-1-yl)pyrimidine]
202 to 203	Cc1ccccc1N1CCN(CCc2ccc(COc3ccc4c(c3)OCO4)cc2)CC1 (as salt: HCl) [Compound 9, 1-(2-(4-((Benzo[d][1,3]dioxol-5-yloxy)methyl)phenyl)ethyl)-4-o-tolylpiperazine]
184 to 185	Cc1ccc(N2CCN(CCc3ccc(COc4ccc5c(c4)OCO5)cc3)CC2)cc1 (as salt: HCl) [Compound 10, 1-(2-(4-((Benzo[d][1,3]dioxol-5-yloxy)methyl)phenyl)ethyl)-4-p-tolylpiperazine]
171 to 172	Cc1cccc(N2CCN(CCc3ccc(COc4ccc5c(c4)OCO5)cc3)CC2)c1 (as salt: HCl) [Compound 11, 1-(2-(4-((Benzo[d][1,3]dioxol-5-yloxy)methyl)phenyl)ethyl)-4-m-tolylpiperazine]
173 to 174	COc1ccccc1N1CCN(CCc2ccc(COc3ccc4c(c3)OCO4)cc2)CC1 (as salt: HCl) [Compound 12, 1-(2-(4-((Benzo[d][1,3]dioxol-5-yloxy)methyl)phenyl)ethyl)-4-(2-methoxyphenyl)piperazine]
174 to 175	COc1ccc(N2CCN(CCc3ccc(COc4ccc5c(c4)OCO5)cc3)CC2)cc1 (as salt: HCl) [Compound 13, 1-(2-(4-((Benzo[d][1,3]dioxol-5-yloxy)methyl)phenyl)ethyl)-4-(4-methoxyphenyl)piperazine]
171 to 172	COc1cccc(N2CCN(CCc3ccc(COc4ccc5c(c4)OCO5)cc3)CC2)c1 (as salt: HCl) [Compound 14, 1-(2-(4-((Benzo[d][1,3]dioxol-5-yloxy)methyl)phenyl)ethyl)-4-(3-methoxyphenyl)piperazine]
187 to 188	Fc1ccccc1N1CCN(CCc2ccc(COc3ccc4c(c3)OCO4)cc2)CC1 (as salt: HCl) [Compound 15, 1-(2-(4-((Benzo[d][1,3]dioxol-5-yloxy)methyl)phenyl)ethyl)-4-(2-fluorophenyl)piperazine]
196 to 197	Fc1ccc(N2CCN(CCc3ccc(COc4ccc5c(c4)OCO5)cc3)CC2)cc1 (as salt: HCl) [Compound 16, 1-(2-(4-((Benzo[d][1,3]dioxol-5-yloxy)methyl)phenyl)ethyl)-4-(4-fluorophenyl)piperazine]
169 to 170	Fc1ccc(N2CCN(CCc3ccc(COc4ccc5c(c4)OCO5)cc3)CC2)c(F)c1 (as salt: HCl) [Compound 17, 1-(2-(4-((Benzo[d][1,3]dioxol-5-yloxy)methyl)phenyl)ethyl)-4-(2,4-difluorophenyl)piperazine]
182 to 183	N#Cc1ccc(N2CCN(CCc3ccc(COc4ccc5c(c4)OCO5)cc3)CC2)c(F)c1 (as salt: HCl) [Compound 18, 4-(4-(2-(4-((Benzo[d][1,3]dioxol-5-yloxy)methyl)phenyl)ethyl)piperazin-1-yl)-3-fluorobenzonitrile]
